According to ChEMBL document CHEMBL4602664, “Chrysosporazines F-M: P-Glycoprotein Inhibitory Phenylpropanoid Piperazines from an Australian Marine Fish Derived Fungus, Chrysosporium sp. CMB-F294” (J Nat Prod, 2020):

Assays:
[1] = test system: Staphylococcus aureus; test: Antibacterial activity against Staphylococcus aureus ATCC 25923 assessed as reduction in microbial growth after 24 hrs by spectrophotometric method; format: functional, organism-based; details: ATCC 25923, 24 h
[2] = test system: Escherichia coli; test: Antibacterial activity against Escherichia coli ATCC 11775 assessed as reduction in microbial growth after 24 hrs by spectrophotometric method; format: functional, organism-based; details: ATCC 11775, 24 h
[3] = test system: Candida albicans; test: Antifungal activity against Candida albicans ATCC 10231 assessed as reduction in microbial growth after 48 hrs by spectrophotometric method; format: functional, organism-based; details: ATCC 10231, 48 h
[4] = test system: SW-620; test: Antiproliferative activity against human SW620 cells assessed as reduction in cell viability after 48 hrs by MTT assay; format: functional, cell-based; details: SW-620, 48 h
[5] = test system: SW620/AD300; test: Antiproliferative activity against human SW620/AD300 cells assessed as reduction in cell viability after 48 hrs by MTT assay; format: functional, cell-based; details: SW620/AD300, 48 h

SMILES | IC50 [1] [µM] | IC50 [2] [µM] | IC50 [3] [µM] | IC50 [4] [µM] | IC50 [5] [µM]
COc1c2c(cc3c1[C@H](c1ccccc1)[C@H]1C(=O)N4C[C@H](Cc5ccccc5)N(C(C)=O)C[C@@H]4[C@@H]31)OCO2 | > 30 | > 30 | > 30 | > 30 | 
COc1cc(C[C@H]2CN3C(=O)/C(=C/c4ccccc4)[C@H](c4cc(OC)c5c(c4)OCO5)[C@H]3CN2C(C)=O)cc2c1OCO2 | > 30 | > 30 | > 30 | > 30 | 
COc1cc([C@H]2/C(=C\c3ccccc3)C(=O)N3C[C@H](Cc4ccccc4)N(C(C)=O)C[C@H]23)cc2c1OCO2 | > 30 | > 30 | > 30 | > 30 | 
COc1cc(C[C@H]2CN3C[C@@H]4[C@@H](c5ccccc5)c5c(cc6c(c5OC)OCO6)[C@@H]4[C@H]3CN2C(C)=O)cc2c1OCO2 | > 30 | > 30 | > 30 | > 30 | 
COc1cc([C@@H]2[C@H]3CN(C(C)=O)[C@@H](Cc4ccccc4)CN3C(=O)[C@@]23O[C@H]3c2ccccc2)cc2c1OCO2 | > 30 | > 30 | > 30 | > 30 | 
COc1c2c(cc3c1[C@H](c1ccccc1)[C@@]1(O)C(=O)N4C[C@H](Cc5ccccc5)N(C(C)=O)C[C@@H]4[C@@H]31)OCO2 | > 30 | > 30 | > 30 | > 30 | 
COc1cc(C[C@H]2CN3C(=O)[C@@]4(O[C@H]4c4ccccc4)[C@H](c4cc(OC)c5c(c4)OCO5)[C@H]3CN2C(C)=O)cc2c1OCO2 | > 30 | > 30 | > 30 | > 30 | 
COc1cc(C[C@H]2CN3C[C@]4(O)[C@@H](c5ccccc5)c5c(cc6c(c5OC)OCO6)[C@@H]4[C@H]3CN2C(C)=O)cc2c1OCO2 | > 30 | > 30 | > 30 | > 30 | 
COc1ccc(CCN(C)CCCC(C#N)(c2ccc(OC)c(OC)c2)C(C)C)cc1OC (stereo not given) |  |  |  |  | > 30
COc1cccc2c1C(=O)c1c(O)c3c(c(O)c1C2=O)C[C@@](O)(C(=O)CO)C[C@@H]3O[C@H]1C[C@H](N)[C@H](O)[C@H](C)O1 [DOXORUBICIN] |  |  |  | 0.11 | 4.9
